The results in this text go back to ChEMBL document CHEMBL1146108, “Discovery of novel and selective tertiary alcohol containing inhibitors of the norepinephrine transporter” (Bioorg Med Chem Lett, 2006).

“And” between values parts separate entries of the source, which are not always exact repeats. Equal entries are not always repeated.

The species entered for series [1] is Canis familiaris. Description: Stability in dog liver microsome. It counts as ADME, Canis lupus familiaris.
The test system of series [2] is Rattus norvegicus. Description: Ability to block alpha-MMT-induced depletion of cortical norepinephrine concentration in orally dosed Sprague-Dawley rat. In kind it is functional. The settings on record: po.
Series [3] deals with T1, Sodium-dependent noradrenaline transporter (Homo sapiens, UniProt P23975). Description: Binding affinity to NET.
Series [4] has as its system Liver microsomes. Kind of series: Stability in human liver microsome. It counts as ADME. Background: Microsomes from liver hold many membrane-bound enzymes, among them those of drug oxidation.
Series [5] concerns Rattus norvegicus. Kind of series: Ability to block alpha-MMT-induced depletion of cortical norepinephrine concentration in Sprague-Dawley rat at 3 mg/kg, sc. It counts as functional. The settings on record: route subcutaneous.
For series [6], the system named is Liver microsomes. Description: Stability in rat liver microsome. It counts as ADME.
Series [7] has as its target Sodium-dependent serotonin transporter (Homo sapiens) (UniProt P31645). Kind of series: Displacement of [3H]5-HT from SERT at 100 nM. On the technique in general: Loss of bound radioactivity is the signal in a displacement assay; it reports binding, not function.
Series [8] deals with Sodium-dependent dopamine transporter (Homo sapiens) (UniProt Q01959). Kind of series: Displacement of […] from DAT at 1000 nM.
In series [9] the target is T1, Sodium-dependent noradrenaline transporter. Description: Binding affinity to NET at 100 nM.

Sodium-dependent serotonin transporter (Homo sapiens), sequence (P31645 whole entry, looked up): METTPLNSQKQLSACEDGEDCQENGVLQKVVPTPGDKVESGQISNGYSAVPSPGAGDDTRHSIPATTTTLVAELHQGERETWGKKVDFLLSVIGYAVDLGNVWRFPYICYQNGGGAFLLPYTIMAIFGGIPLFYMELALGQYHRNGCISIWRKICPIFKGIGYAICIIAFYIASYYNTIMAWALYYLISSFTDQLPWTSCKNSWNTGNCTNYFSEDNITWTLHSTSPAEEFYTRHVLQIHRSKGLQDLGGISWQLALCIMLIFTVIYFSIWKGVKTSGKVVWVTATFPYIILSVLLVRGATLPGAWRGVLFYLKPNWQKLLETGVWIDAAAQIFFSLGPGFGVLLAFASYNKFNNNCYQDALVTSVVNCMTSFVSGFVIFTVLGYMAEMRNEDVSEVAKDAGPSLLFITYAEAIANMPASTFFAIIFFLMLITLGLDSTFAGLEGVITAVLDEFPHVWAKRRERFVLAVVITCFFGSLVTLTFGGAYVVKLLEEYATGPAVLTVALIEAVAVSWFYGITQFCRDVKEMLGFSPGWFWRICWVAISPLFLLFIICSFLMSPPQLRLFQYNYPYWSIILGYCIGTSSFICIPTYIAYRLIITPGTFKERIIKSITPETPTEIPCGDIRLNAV
T1 sequence (P23975 whole entry): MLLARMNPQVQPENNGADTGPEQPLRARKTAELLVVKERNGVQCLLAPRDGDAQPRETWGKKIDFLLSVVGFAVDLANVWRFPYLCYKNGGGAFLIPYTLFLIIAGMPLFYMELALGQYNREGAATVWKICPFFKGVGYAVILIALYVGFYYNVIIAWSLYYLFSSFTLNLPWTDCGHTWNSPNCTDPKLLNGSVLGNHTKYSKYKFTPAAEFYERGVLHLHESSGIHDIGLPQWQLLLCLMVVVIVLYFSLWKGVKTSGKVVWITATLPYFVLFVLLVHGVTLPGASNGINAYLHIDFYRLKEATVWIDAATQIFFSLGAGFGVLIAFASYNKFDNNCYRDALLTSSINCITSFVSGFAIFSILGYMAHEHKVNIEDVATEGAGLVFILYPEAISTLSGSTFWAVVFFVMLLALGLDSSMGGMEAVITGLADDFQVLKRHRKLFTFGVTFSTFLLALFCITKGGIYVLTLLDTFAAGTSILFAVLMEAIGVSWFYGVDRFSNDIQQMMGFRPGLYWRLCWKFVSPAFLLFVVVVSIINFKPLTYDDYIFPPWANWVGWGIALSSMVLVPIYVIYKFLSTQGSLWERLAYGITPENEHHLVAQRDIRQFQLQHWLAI
Sodium-dependent dopamine transporter (Homo sapiens), sequence (Q01959 whole entry): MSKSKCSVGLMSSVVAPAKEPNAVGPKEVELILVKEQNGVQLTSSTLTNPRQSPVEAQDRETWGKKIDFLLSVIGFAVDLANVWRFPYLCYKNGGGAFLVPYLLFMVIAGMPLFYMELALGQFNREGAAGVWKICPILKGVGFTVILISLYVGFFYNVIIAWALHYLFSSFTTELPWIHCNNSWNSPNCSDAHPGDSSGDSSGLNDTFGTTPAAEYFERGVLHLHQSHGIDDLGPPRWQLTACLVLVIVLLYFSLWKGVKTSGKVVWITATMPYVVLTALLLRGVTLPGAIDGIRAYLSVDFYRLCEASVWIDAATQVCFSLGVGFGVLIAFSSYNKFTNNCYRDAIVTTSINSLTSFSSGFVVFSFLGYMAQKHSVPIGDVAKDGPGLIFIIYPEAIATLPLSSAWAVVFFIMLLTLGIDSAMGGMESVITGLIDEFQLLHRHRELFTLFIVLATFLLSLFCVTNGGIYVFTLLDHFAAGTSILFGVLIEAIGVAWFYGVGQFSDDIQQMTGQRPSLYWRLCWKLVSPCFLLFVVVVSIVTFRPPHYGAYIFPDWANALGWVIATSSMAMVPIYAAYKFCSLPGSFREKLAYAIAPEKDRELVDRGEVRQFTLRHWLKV

As usually defined, the ED50 is the dose that gives a 50% effect, or the effect in half of the subjects. High values mean a need for a large dose, low ones an effect at a small dose. In general, Ki refers to a dissociation constant, usually derived from enzyme kinetics or from competition with a known ligand. Higher therefore signals lower affinity. Consider `COc1ccccc1C[C@@](O)(c1ccccc1)[C@@H]1CNCCO1.Cl.Cl.Cl`, for which the Stability in series [1] worked out at 60%; in series [4], 98%; in [6], 0%. Moreover, in [2], the 50% effect level (ED50) was put at a dose of 18 mg/kg. The compound further showed a Ki in series [3] of 3.2 nM. This compound came in with an Activity in [5] of 70%.
One may read the inhibition as the share of the control response that was lost under treatment. Read a high inhibition as a response far below the control. Compound `O[C@](Cc1ccccc1SC(F)(F)F)(c1ccccc1)[C@@H]1CNCCO1` came in with a Ki in series [3] of 54.4 nM. Further, the inhibition in [7] was found to be 14.8%; in series [8], 6.2%.
For `O[C@](Cc1ccccc1-c1ccccc1)(c1ccccc1)[C@@H]1CNCCO1` (single isomer, unassigned) the same measures were 3.7 nM, 3% and 2.9%.
`COc1ccccc1C[C@@](O)(c1ccccc1)[C@@H]1CNCCO1` [listing 1 of 3 here] registered a Ki in series [3] of 56 nM.
Consider `COc1ccccc1C[C@@](O)(c1ccccc1)[C@@H]1CNCCO1` [listing 2 of 3 here], for which the inhibition is 5% and 5.5% and 1.4% in [7]; 4.7% and 3.8% and 3.7% in [8].
In series [3], `COc1ccccc1C[C@@](O)(c1ccccc1)[C@@H]1CNCCO1` [listing 3 of 3 here] gave a Ki of 161 nM. In other words, the sub-micromolar range.
For `CCOc1ccccc1C[C@@](O)(c1ccccc1)[C@@H]1CNCCO1`, the Ki in series [3] was determined as 5.2 nM. The inhibition in series [7] was 2.4%; in series [8] it was 3.8%.
For `O[C@](Cc1ccccc1Cl)(c1ccccc1)[C@@H]1CNCCO1` the same measures were 30 nM, 4.6% and 20.8%.
For `CC(C)Oc1ccccc1C[C@@](O)(c1ccccc1)[C@@H]1CNCCO1` the same measures were 7.7 nM, 2.7% and 5.1%.
For `O[C@](Cc1ccccc1)(c1ccccc1)[C@@H]1CNCCO1` the same measures were 148 nM, 4.2% and 5.5%.
As to `COc1cccc(C[C@@](O)(c2ccccc2)[C@@H]2CNCCO2)c1`, the inhibition in [7] is 2.8%; in [9], 19.8%; in series [8], 4.3%.
For the compound `COc1ccccc1C[C@@](O)(c1ccccc1)[C@@H]1CNCCO1` (single isomer, unassigned; isomer 2) [listing 1 of 2 here], the results for the inhibition in series [7] and in series [8] were 0.3% and 4.6%, respectively.
Consider `O[C@](Cc1ccccc1Br)(c1ccccc1)[C@@H]1CNCCO1`, for which, in [3], the Ki is 11.9 nM. Moreover, the results for the inhibition in series [7] and in [8] were 13% and 24.1%, respectively.
`COc1ccc(C[C@@](O)(c2ccccc2)[C@@H]2CNCCO2)cc1`: the inhibition is 4.3% in series [7], 25.2% in series [9] and 6.2% in series [8].
With `COc1ccccc1C[C@@](O)(c1ccccc1)[C@@H]1CNCCO1` (single isomer, unassigned; isomer 2) [listing 2 of 2 here], in [3], the affinity, expressed as Ki, was 156 nM. This lies in the sub-micromolar range.
